We go through 29 compounds from US9206200B2, “N-linked lactam M1 receptor positive allosteric mogulators” (Merck Sharp & Dohme Corp., priority 2011, dated 2015).

Where only a bound is given, the exact number is not on record here.

One test deals with T1, acetylcholine muscarinic M1 receptor (Homo sapiens, UniProt P11229).
T1 construct: expressed in transfected cells; host or cells: CHOnfat cells (CHO cells with an NFAT reporter) expressing hM1, kept under Geneticin selection
T1 sequence (P11229 1-460): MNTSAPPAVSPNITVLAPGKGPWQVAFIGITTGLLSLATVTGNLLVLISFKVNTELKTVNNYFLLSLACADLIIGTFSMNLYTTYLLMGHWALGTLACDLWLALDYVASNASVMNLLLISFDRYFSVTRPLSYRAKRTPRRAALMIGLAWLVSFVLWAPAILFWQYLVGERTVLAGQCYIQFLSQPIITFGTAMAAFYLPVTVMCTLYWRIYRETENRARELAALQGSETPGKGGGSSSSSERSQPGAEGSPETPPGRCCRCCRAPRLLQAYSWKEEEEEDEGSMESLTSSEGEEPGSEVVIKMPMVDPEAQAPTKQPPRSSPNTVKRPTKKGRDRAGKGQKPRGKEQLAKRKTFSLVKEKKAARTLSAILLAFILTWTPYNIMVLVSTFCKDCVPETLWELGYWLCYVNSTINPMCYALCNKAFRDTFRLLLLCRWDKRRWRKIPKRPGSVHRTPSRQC
Put plainly: muscarinic FLIPR assay: intracellular calcium in CHOnfat/hM1 cells, potentiation of EC20 acetylcholine. Type of test: cell-based. The conditions noted are these: Table 1; CHOnfat/hM1 cells, FLIPR, EC20 acetylcholine (3 nM final); read-out: M1 Pot. In outline:
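CHOnfat cells stably expressing human M1, Fluo-4AM-loaded, in HBSS with 20 mM HEPES, 2.5 mM probenecid, 1% BSA. Compounds preincubated 4 min (printed "4 mM") before an EC20 acetylcholine challenge (3 nM final). FLIPR intracellular Ca²⁺ signal compared with 3 nM acetylcholine alone to detect potentiation.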
(In general: Calcium assays in cells follow changes in intracellular calcium, usually with a dye or a luminescent sensor.)
On to `N#CC1(F)CCN(Cc2cc3c(c4ccccc24)CN([C@H]2CCCC[C@@H]2O)C3=O)CC1` [Example 19, 4-fluoro-1-({2-[(1S,2S)-2-hydroxycyclohexyl]-3-oxo-2,3-dihydro-1H-benzo[e]isoindol-5-yl}methyl)piperidine-4-carbonitrile], for which the EC50 worked out at 37 nM.

As to `COc1ccc(N2CCN(Cc3cc4c(c5ccccc35)CN([C@H]3CCCC[C@@H]3O)C4=O)C(C)C2)cc1` (stereo partly drawn) [Example 70, 2-[(1S,2S)-2-hydroxycyclohexyl] 5-{[4-(4-methoxyphenyl)-2-methylpiperazin-1-yl]methyl}-1,2-dihydro-3H-benzo[e]isoindol-3-one], the EC50 is 150 nM.

On to `O=C1c2cc(CN3C[C@@H](F)[C@H](F)C3)c3ccccc3c2CN1C1CCCCC1O` (relative stereo) [Example 29, 5-{[trans-3,4-difluoropyrrolidin-1-yl]methyl}-2-(2-hydroxycyclohexyl)-1,2-dihydro-3H-benzo[e]isoindol-3-one], for which the EC50 worked out at 240 nM.

In the case of `CC(=O)N1CCN(Cc2cc3c(c4ccccc24)CN(C2CCCCC2O)C3=O)CC1` (centres unmarked) [Example 14, 5-[(4-acetylpiperazin-1-yl)methyl]-2-(2-hydroxycyclohexyl)-1,2-dihydro-3H-benzo[e]isoindol-3-one], the EC50 amounted to 2600 nM.

For the compound `O=C1c2cc(CN3CCC(F)(F)C3)c3ccccc3c2CN1C1CCCCC1O` (centres unmarked) [Example 33, 5-[(3,3-difluoropyrrolidin-1-yl)methyl]-2-(2-hydroxycyclohexyl)-1,2-dihydro-3H-benzo[e]isoindol-3-one], the EC50 came to 240 nM.

Take `O=C1c2cc(CN3CCCC(F)(F)C3)c3ccccc3c2CN1C1CCCCC1O` (centres unmarked) [Example 18, 5-[(3,3-difluoropiperidin-1-yl)methyl]-2-(2-hydroxycyclohexyl)-1,2-dihydro-3H-benzo[e]isoindol-3-one]: the EC50 was 160 nM.

With `CC1(O)CCN(Cc2cc3c(c4ccccc24)CN(C2CCCCC2O)C3=O)CC1` (centres unmarked) [Example 37, 2-(2-hydroxycyclohexyl)-5-[(4-hydroxy-4-methylpiperidin-1-yl)methyl]-1,2-dihydro-3H-benzo[e]isoindol-3-one], the EC50 is more than 1100 nM.

Take `N#CC1CCN(Cc2cc3c(c4ccccc24)CN([C@H]2CCCC[C@@H]2O)C3=O)CC1` [Example 20, 1-({2-[(1S,2S)-2-hydroxycyclohexyl]-3-oxo-2,3-dihydro-1H-benzo[e]isoindol-5-yl}methyl)piperidine-4-carbonitriIe]: the EC50 is 93 nM.

In the case of `CC1c2c(cc(CN3CCC(C#N)(c4ccccn4)CC3)c3ccccc23)C(=O)N1[C@H]1CCCC[C@@H]1O` (single isomer, unassigned) [Example 45], the EC50 came to 272 nM.

Consider `O=C1c2cc(CN3CCC(O)CC3)c3ccccc3c2CN1C1CCCCC1O` (centres unmarked) [Example 22, 2-(2-hydroxycyclohexyl)-5-[(4-hydroxypiperidin-1-yl)methyl]-1,2-dihydro-3H-benzo[e]isoindol-3-one], for which the EC50 was determined as 480 nM.

Consider `COc1ccc(N2CCN(Cc3cc4c(c5ccccc35)CN([C@H]3CCCC[C@@H]3O)C4=O)CC2)cc1` [Example 69, 2-[(1S,2S)-2-hydroxycyclohexyl]-5-{[4-(4-methoxyphenyl)piperazin-1-yl]methyl}-1,2-dihydro-3H-benzo[e]isoindol-3-one], for which the EC50 was 49 nM.

Consider `N#CC1(c2ccccc2F)CCN(Cc2cc3c(c4ccccc24)CN([C@@H]2CCCC[C@@H]2O)C3=O)CC1` [Example 60, 4-(2-fluorophenyl)-1-({2-[(1R,2S)-2-hydroxycyclohexyl]-3-oxo-2,3-dihydro-1H-benzo[e]isoindol-5-yl}methyl)piperidine-4-carbonitrile], for which the EC50 is 44 nM.

Turning to `CS(=O)(=O)N1CCN(Cc2cc3c(c4ccccc24)CN(C2CCCCC2O)C3=O)CC1` (centres unmarked) [Example 15, 2-(2-hydroxycyclohexyl)-5-{[4-(methylsulfonyl)piperazin-1-yl]methyl}-1,2-dihydro-3H-benzo[e]isoindol-3-one], the EC50 is 720 nM.

Take `N#CC1(c2ccccn2)CCN(Cc2cc3c(c4ccccc24)CN([C@@H]2CCCC[C@H]2O)C3=O)CC1` [Example 46, 1-({2-[(1R,2R)-2-hydroxycyclohexyl]-3-oxo-2,3-dihydro-1H-benzo[e]isoindol-5-yl}methyl)-4-pyridin-2-ylpiperidine-4-carbonitrile]: the EC50 came to 539 nM.

Turning to `O=C1c2cc(CN3CCCC3C(F)(F)F)c3ccccc3c2CN1C1CCCCC1O` (centres unmarked) [Example 30, 2-(2-hydroxycyclohexyl)-5-{[2-(trifluoromethyl)pyrrolidin-1-yl]methyl}-1,2-dihydro-3H-benzo[e]isoindol-3-one], the EC50 worked out at 2700 nM.

On to `O=C1c2cc(CN3CCN(c4ccc5ncsc5c4)CC3)c3ccccc3c2CN1c1ccccc1F` [Example 85, 5-{[4-(1,3-benzothiazol-6-yl)piperazin-1-yl]methyl}-2-(2-fluorophenyl)-1,2-dihydro-3H-benzo[e]isoindol-3-one], for which the EC50 was 1140 nM.

The same test, now with this note: Table 2; CHOnfat/hM1 cells, FLIPR, EC20 acetylcholine (3 nM final); read-out: M1 Pot.
On to `N#CC1(F)CCN(Cc2cc3c(c4ncccc24)CN(c2cccc(O)c2)C3=O)CC1` [Example 127, 4-fluoro-1-{[8-(3-hydroxyphenyl)-7-oxo-8,9-dihydro-7H-pyrrolo[3,4-h]quinolin-5-yl]methyl}piperidine-4-carbonitrile], for which the EC50 worked out at 44 nM.

Regarding `O=C1c2cc(CN3CCN(c4ccccn4)CC3)c3cccnc3c2CN1C1CCCCC1O` (centres unmarked) [Example 165, 8-(2-hydroxycyclohexyl)-5-[(4-pyridin-2-ylpiperazin-1-yl)methyl]-8,9-dihydro-7H-pyrrolo[3,4-h]quinolin-7-one], the EC50 turned out to be 15 nM.

`CC1c2c(cc(CN3CCN(c4ccccc4)CC3)c3cccnc23)C(=O)N1C1CCCCC1O` (centres unmarked) [Example 176, 8-(2-hydroxycyclohexyl)-9-methyl-5-[(4-phenylpiperazin-1-yl)methyl]-8,9-dihydro-7H-pyrrolo[3,4-h]quinolin-7-one]: the EC50 came to 93 nM.

In the case of “1-({8-[(1S,2S)-2-hydroxycyclohexyl]-7-oxo-8,9-dihydro-7H-pyrrolo[3,4-h]quinolin-5-yl}methyl)-4-(6-methoxypyridin-2-yl)piperidine-4-carbonitrile [Example 155]”, the EC50 was found to be 520 nM.

Regarding `CC1c2c(cc(CN3CCN(c4ccc(F)cc4)CC3)c3cccnc23)C(=O)N1C1CCCCC1O` (centres unmarked) [Example 172, 5-{[4-(4-fluorophenyl)piperazin-1-yl]methyl}-8-(2-hydroxycyclohexyl)-9-methyl-8,9-dihydro-7H-pyrrolo[3,4-h]quinolin-7-one], the EC50 was 480 nM.

On to `O=C1c2cc(CN3CCC(C4CC4)CC3)c3cccnc3c2CN1C1CCCCC1O` (centres unmarked) [Example 90, 5-[(4-cyclopropylpiperidin-1-yl)methyl]-8-(2-hydroxycyclohexyl)-8,9-dihydro-7H-pyrrolo[3,4-h]quinolin-7-one], for which the EC50 came to 1200 nM.

Consider `O=C1c2cc(CN3CCCC3)c3cccnc3c2CN1C1CCCCC1O` (centres unmarked) [Example 97, 8-(2-hydroxycyclohexyl)-5-(pyrrolidin-1-ylmethyl)-8,9-dihydro-7H-pyrrolo[3,4-h]quinolin-7-one], for which the EC50 was 5200 nM.

On to `CC1c2c(cc(CN3CCN(c4ccccc4)CC3)c3cccnc23)C(=O)N1C1CCCCC1O` (centres unmarked) [Example 175, 8-(2-hydroxycyclohexyl)-9-methyl-5-[(4-phenylpiperazin-1-yl)methyl]-8,9-dihydro-7H-pyrrolo[3,4-h]quinolin-7-one], for which the EC50 stood at 490 nM.

Consider `O=C1c2cc(CN3CCC(C(F)(F)F)CC3)c3cccnc3c2CN1C1CCCCC1O` (centres unmarked) [Example 123, 8-(2-hydroxycyclohexyl)-5-{[4-(trifluoromethyl)piperidin-1-yl]methyl}-8,9-dihydro-7H-pyrrolo[3,4-h]quinolin-7-one], for which the EC50 turned out to be 97 nM.

Regarding `N#CC1(F)CCN(Cc2cc3c(c4ncccc24)CN([C@H]2CCCC[C@@H]2O)C3=O)CC1` [Example 117, 4-fluoro-1-({8-[(1S,2S)-2-hydroxycyclohexyl]-7-oxo-8,9-dihydro-7H-pyrrolo[3,4-h]quinolin-5-yl}methyl)piperidine-4-carbonitrile], the EC50 was 38 nM.

In the case of `CC#CC1(F)CCN(Cc2cc3c(c4ncccc24)CN([C@H]2CCCC[C@@H]2O)C3=O)CC1` [Example 131, 5-[(4-fluoro-4-prop-1-yn-1-ylpiperidin-1-yl)methyl]-8-[(1S,2S)-2-hydroxycyclohexyl]-8,9-dihydro-7H-pyrrolo[3,4-h]quinolin-7-one], the EC50 was found to be 33 nM.

Turning to `N#CC1(c2ccccc2)CCN(Cc2cc3c(c4ncccc24)CN([C@H]2CCCC[C@@H]2O)C3=O)CC1` [Example 136, 1-({8-[(1S,2S)-2-hydroxycyclohexyl]-7-oxo-8,9-dihydro-7H-pyrrolo[3,4-h]quinolin-5-yl}methyl)-4-phenylpiperidine-4-carbonitrile], the EC50 is 14 nM.

Staying with this test, now noted: Table 3; inflection point calculated from the FLIPR values; EC20 acetylcholine (3 nM final); read-out: IP Value.
As to `Cc1cccc(C2(C#N)CCN(Cc3cc4c(c5ccccc35)CN([C@H]3CCCC[C@@H]3O)C4=O)CC2)n1` [Example 4, 1-({2-[(1S,2S)-2-Hydroxycyclohexyl]-3-oxo-2,3-dihydro-1H-benzo[e]isoindol-5-yl}methyl)-4-(6-methylpyridin-2-yl)piperidine-4-carbonitrile], the EC50 is 27 nM.
